A short description of this data set: Heating of saccharide solutions in an open system (observation, ion-exchange chromatography). In kind it is physicochemical. On the procedure:
The following steps were performed to observe the impact of heat and pH on xylo-oligosaccharides: • 1. Four saccharide solutions comprising xylo-oligosaccharides of primarily degree of polymerization (DP) 2-6 (XOS) were created by dissolving saccharides in water, some solutions including an acidity regulator. The four solutions were: • a. XOS in water, pH 7 • b. XOS in water, pH 7 • c. XOS in water and lemon juice, pH 2 • d. XOS in water and baking soda, pH 9 • 2. The four solutions were heated, and the resulting products analyzed. For the four solutions: • a. XOS in water at pH 7 was heated to 110° C. (FIG. 1A). The solution was yellow when dissolved in water, and sticky, dissolving around 60° C. The solution formed soft, sticky threads at 110° C. […] XOS in water at pH 7 was heated to 177° C. (FIG. 1B). The solution got very dark at 177° C. and smelled burnt. The solution began darkening in color around 120° C., with the darkest color formation beginning at 150° C. The solution formed a hard crack consistency at 177° C. When water was added, the hard crack consistency re-dissolved slowly. • c. XOS in water and lemon juice at pH 2 was heated to 177° C. (FIG. 1C). This solution behaved the same as solution (b). • d. […]
The following steps were performed to observe the impact of heat and pH on cello-oligosaccharide: • 1. […] The four solutions were heated, and the resulting products analyzed. […]

Structures are written as SMILES.

As to `OC[C@H]1O[C@@](CO)(O[C@H]2O[C@H](CO)[C@@H](O)[C@H](O)[C@H]2O)[C@@H](O)[C@@H]1O` [Sucrose], the degradation after heating result (177° C. at pH 7 and pH 4, open system) is “degrades”; the degradation after heating entry (177° C. at pH 10, open system) is reported as “does not degrade”.

(Values after patent US20240114940A1, “SACCHARIDE COMPOSITIONS HAVING SUCROSE-LIKE CHARACTERISTICS AND RELATED METHODS” (priority 2021, published 2024).)
